Experimental data: paper PMC8196580, “Identification of Kaurane-Type Diterpenes as Inhibitors of Leishmania Pteridine Reductase I” (Molecules, 2021); call rule not given here
Read-outs that look alike come from different tables or passages of the source.

Key:
L. major [1] = test system: L. major; design: method as in ChEMBL; settings: ref ChEMBL, cited from earlier work
L. major [2] = assay: ChEMBL dataset of pIC50 values against L. major used for the RF model (Table S1); format: cell-based, Leishmania major
From the text: From the ChEMBL database (https://www.ebi.ac.uk/chembl/, accessed on 10 January 2021), we selected a diverse set of 1085 structures that were initially classified according to their predicted activity against L. major.
Excluding these structures minimized the differences in activity values resulting from errors and differences in experimental protocols. […] Standardizer software [JChem, version 16.11.28 (2016), calculation module developed by ChemAxon, https://www.chemaxon.com/, accessed on 20 January 2021] was used to canonize all simplified molecular-input line-entry system (SMILES) codes. After duplicate structures were removed, those with higher pIC50 values were eliminated, facilitating the generation of more restrictive models.

[3] = ChemBL structures with pIC50 values used for Random forest model construction (Table S1)
[4] = Active/Inactive class assigned to ChemBL structures for Random forest model construction (Table S1)
[5] = ChemBL structures with pIC50 values used for Random forest model construction, L. major
[6] = Active/Inactive class assigned to the ChEMBL pIC50 value for Random forest model construction, ref ChEMBL

| SMILES | pIC50 Value (L. major [1]; [3]) | Outcome (L. major [2]; [4]) | pIC50 Value (L. major [1]; [5]) | Outcome (L. major [2]; [6]) |
| --- | --- | --- | --- | --- |
| C=C[C@@]1(C)Cc2c(OC(C)=O)ccc(OC(C)=O)c2C[C@H]1C(=C)C [CHEMBL442439] | 5.37 | Active |  |  |
| C[C@]12CC[C@H](O)C[C@@H]1CC[C@@H]1[C@@H]2CC[C@@]2(C)[C@H]1CC[C@@H]2[C@@](C)(O)c1ccccn1 [CHEMBL1214311] |  |  | 4.00 | Inactive |
| COc1ccc(/C=C/C(=O)c2ccc(O)cc2)c(OC)c1 [CHEMBL434066] | 5.40 | Active |  |  |
| O=C(CCl)N1c2ccccc2Oc2ccc(Cl)cc21 [CHEMBL3758242] |  |  | 5.12 | Active |
| O=C(/C=C/c1ccc(-n2ccnc2)cc1)c1ccc(F)cc1 [CHEMBL570258] | 5.61 | Active |  |  |
| Cc1ccc(-c2nc3ccccc3[nH]2)o1 [CHEMBL2298017] | 5.37 | Active |  |  |
| C=CCOc1ccc(C(=O)/C=C/c2ccc(OC)cc2OC)cc1 [CHEMBL253672] | 5.40 | Active |  |  |
| Cn1cc(C=Nc2ccccc2)c2ccccc21 [CHEMBL2071552] | 5.49 | Active |  |  |
| CCc1ccc(Nc2ncnc3ccc([N+](=O)[O-])cc23)cc1 [CHEMBL3759644] |  |  | 4.42 | Inactive |
| CC1=C(C(=O)OC(C)C)C(c2cccc([N+](=O)[O-])c2)C(C(=O)OC2CN(C(c3ccccc3)c3ccccc3)C2)=C(N)N1 (stereo not drawn) [CHEMBL1275868] |  |  | 4.77 | Inactive |
| COc1ccc(O)c(/C=N/NC(=O)c2ccc(-c3nnc(-c4ccccc4OC)o3)cc2)c1 [CHEMBL4082571] |  |  | 4.79 | Inactive |
| O=C(c1ccc(Cl)s1)N1CCN(c2nnc(-c3ccc([N+](=O)[O-])s3)s2)CC1 [CHEMBL464870] |  |  | 4.62 | Inactive |
| N#Cc1ccc(N2CCN(c3nnc(-c4ccc([N+](=O)[O-])o4)s3)CC2)cc1 [CHEMBL1783198] |  |  | 3.98 | Inactive |
| Cn1cc(/C=N/C(c2ccccc2)c2ccccc2)c2ccccc21 [CHEMBL2071556] | 5.73 | Active |  |  |
| COc1ccccc1C(=O)N/N=C/c1ccccn1 [CHEMBL2382029] |  |  | 4.22 | Inactive |
| Cc1ccc2nc(CCC3CCCCC3)[nH]c2c1 [CHEMBL1255797] |  |  | 4.63 | Inactive |
| C/C=C/C=C/c1nc2cc(OC)ccc2n2cccc12 [CHEMBL3260207] | 5.52 | Active |  |  |
| Cc1ccc2cc(C3CC(c4sccc4C)=NN3)c(Cl)nc2c1 (stereo not drawn) [CHEMBL2236136] | 5.65 | Active |  |  |
| CCN(C)c1ccc(Nc2c3ccccc3nc3ccccc23)cc1 [CHEMBL86724] | 6.00 | Active |  |  |
| NC(=O)c1ccc(-c2c(-c3ccccc3)nc3ccccn23)cc1 [CHEMBL2151865] |  |  | 4.57 | Inactive |

| SMILES | pIC50 Value (L. major [1]; [3]) | Outcome (L. major [2]; [4]) | pIC50 Value (L. major [1]; [5]) | Outcome (L. major [2]; [6]) |
| --- | --- | --- | --- | --- |
| Cc1cc(COP(N)(=O)N(CCCl)CCCl)ccc1[N+](=O)[O-] (stereo not drawn) [CHEMBL1256989] |  |  | 4.52 | Inactive |
| C=C1CCC[C@@]2(C)CC3=C(C[C@@H]12)C(=O)C=CC3=O [CHEMBL401659] |  |  | 4.99 | Inactive |
| COc1ccccc1-c1nnc(-c2ccc(C(=O)N/N=C/c3cccc(Cl)c3)cc2)o1 [CHEMBL4096109] |  |  | 4.68 | Inactive |
| CN(C)c1ccc(Nc2c3ccc(NC(=O)CCN4CCCC4)cc3nc3cc(NC(=O)CCN4CCCC4)ccc23)cc1 [CHEMBL336434] |  |  | 4.90 | Inactive |
| C=C[C@@]1(C)CC2=C(C[C@H]1C(=C)C)C(O)C=CC2O (stereo partly drawn) [CHEMBL257133] |  |  | 4.74 | Inactive |
| COc1ccc(-c2nc3ccccn3c2-c2cccc([N+](=O)[O-])c2)cc1 [CHEMBL2151882] |  |  | 4.85 | Inactive |
| CC1=N[C@H](C)Cc2c(-c3ccc4ccccc4c3)ccc(O)c21 [CHEMBL1276918] |  |  | 4.46 | Inactive |
| O=C(CCl)N1c2ccccc2Sc2ccccc21 [CHEMBL1651446] |  |  | 5.03 | Active |
| C[C@H]1COC2=C1C(=O)C(=O)c1c2ccc2c1CCCC2(C)C [CHEMBL187460] |  |  | 4.74 | Inactive |
| O=[N+]([O-])c1ccc(-c2nc3ccccc3[nH]2)cc1 [CHEMBL473361] | 5.53 | Active |  |  |
| O=[N+]([O-])c1ccc(-c2c(-c3ccccc3)nc3cnccn23)cc1 [CHEMBL3634352] |  |  | 4.56 | Inactive |
| Clc1ccccc1-c1nc2ccccc2[nH]1 [CHEMBL473162] | 5.47 | Active |  |  |
| CC[C@H](CO)Nc1nc(NCc2cccc(OC)c2O)c2ncn(C(C)C)c2n1 [CHEMBL2349189] |  |  | 4.01 | Inactive |
| CN1CCN(c2ccnc3cc(Cl)ccc23)CC1 [CHEMBL1255667] |  |  | 4.00 | Inactive |
| COc1cc(OC)c2c(C)[n+](-c3cccc4cc5ccccc5cc34)c(C)cc2c1.O=C([O-])C(F)(F)F [CHEMBL516450] | 5.73 | Active |  |  |
| COc1ccccc1C(=O)N/N=C/c1cc(O)cc(O)c1 [CHEMBL2382035] |  |  | 4.55 | Inactive |
| CCCCc1ccc(-[n+]2c(C)cc3cc(OC)cc(OC)c3c2C)cc1.F[B-](F)(F)F [CHEMBL481023] | 5.57 | Active |  |  |
| COc1ccccc1-c1nnc(-c2ccc(C(=O)N/N=C/c3ccccc3[N+](=O)[O-])cc2)o1 [CHEMBL4104790] |  |  | 4.19 | Inactive |
| Cn1c([N+](=O)[O-])cnc1-c1nnc(N2CCN(C(=O)c3cccc(Cl)c3)CC2)s1 [CHEMBL482665] |  |  | 4.75 | Inactive |
| CSc1cccc(Nc2ncnc3ccc([N+](=O)[O-])cc23)c1 [CHEMBL3760067] |  |  | 4.70 | Inactive |

| SMILES | pIC50 Value (L. major [1]; [3]) | Outcome (L. major [2]; [4]) | pIC50 Value (L. major [1]; [5]) | Outcome (L. major [2]; [6]) |
| --- | --- | --- | --- | --- |
| COc1ccc(-c2ccc3cc(C)nc(C)c3c2O)c2cc(C)cc(OC)c12 [CHEMBL224952] |  |  | 4.00 | Inactive |
| Cc1cccc(Cn2cc(CNc3nnc(-c4ccc([N+](=O)[O-])o4)s3)nn2)c1 [CHEMBL1951529] |  |  | 4.66 | Inactive |
| COc1cc2c(c(OC)c1)C(C)=[N+](c1ccc(OC)c3c(OC)cc(C)cc13)[C@@H](C)C2.O=C([O-])C(F)(F)F [CHEMBL222358] | 5.31 | Active |  |  |
| O=C(c1ccc(Br)s1)N1CCN(c2nnc(-c3ccc([N+](=O)[O-])s3)s2)CC1 [CHEMBL518866] |  |  | 4.61 | Inactive |
| O=C(c1cccc(Cl)c1)N1CCN(c2nnc(-c3ccc([N+](=O)[O-])s3)s2)CC1 [CHEMBL458778] |  |  | 4.30 | Inactive |
| CC(=O)C1=C(CNc2ccc(C(=O)/C=C/c3ccccc3)cc2)N(C)C(=O)NC1c1ccccc1 (stereo not drawn) [CHEMBL3786339] | 5.94 | Active |  |  |
| O=[N+]([O-])c1ccc2nc(-c3cccs3)[nH]c2c1 [CHEMBL2297907] | 5.48 | Active |  |  |
| CCN1CSC(=S)N(CC)C1 [CHEMBL1571763] |  |  | 4.42 | Inactive |
| Cc1ccc2cc(/C=C/C(=O)c3ccsc3)c(Cl)nc2c1 [CHEMBL1940850] | 5.55 | Active |  |  |
| CCN(CC)NC(=O)c1ccc(OCc2ccccc2)cc1 [CHEMBL3613383] |  |  | 4.68 | Inactive |
| CC1=N[C@H](C)Cc2c(-c3ccc(C)cc3)ccc(O)c21 [CHEMBL1275822] |  |  | 4.07 | Inactive |
| C[C@@H]1C[C@@]2(O[C@H]3C[C@@]4(C)[C@@H]5C[C@H](O)[C@H]6C(C)(C)[C@@H](O[C@@H]7OC[C@@H](O)[C@@H](O)[C@H]7O)CC[C@@]67C[C@@]57CC[C@]4(C)[C@@H]13)O[C@H](O)[C@]1(C)C[C@H]21 [CHEMBL501026] |  |  | 4.19 | Inactive |
| NP(=O)(OCc1ccc([N+](=O)[O-])cc1)N(CCCl)CCCl (stereo not drawn) [CHEMBL144896] |  |  | 4.52 | Inactive |
| Clc1cc(Cl)cc(-c2nc3ccccn3c2-c2ccccc2)c1 [CHEMBL2151989] |  |  | 4.41 | Inactive |
| O=C(/C=C/c1ccc(-n2ccnc2)cc1)c1ccccc1F [CHEMBL571071] | 5.47 | Active |  |  |
| CCN(CC)CCCc1ccc(Nc2c3ccccc3nc3ccccc23)cc1 [CHEMBL89519] | 6.52 | Active |  |  |
| Cc1ccc(N2C(=O)C(c3ccc(C)cc3)(c3ccc(C)cc3)C2c2cn(C)c3ccccc23)cc1 (stereo not drawn) [CHEMBL2071565] | 5.89 | Active |  |  |
| CCC/C=C/C=C/c1nc2cc(OC)ccc2n2cccc12 [CHEMBL3260211] | 5.55 | Active |  |  |
| COc1ccc(-[n+]2c(C)cc3cc(OC)cc(OC)c3c2C)cc1.F[B-](F)(F)F [CHEMBL481565] |  |  | 4.00 | Inactive |
| NP(=O)(OCc1c(F)cc([N+](=O)[O-])cc1F)N(CCCl)CCCl (stereo not drawn) [CHEMBL1257018] | 5.89 | Active |  |  |
